“Also recorded” adds a separate entry of the source.
Assays:
[1] = molecular target: T1, ABHD3 (Homo sapiens, UniProt Q8WU67); assay: ABPP-SILAC, PC3 cells treated in situ; assay type: cell-based; details: 4 h in situ, FP-biotin
T1 construct: endogenous in cells; host or cells: PC3
Experimental: (§1) In situ inhibitor treatments of human cell lines were performed as described previously (Hsu et al., J Med Chem 56, 8270-8279, 2012). Briefly, PC3 or transfected HEK293T cells were grown to confluency in serum-containing media (RPMI or DMEM, respectively). The culture media was then removed and replaced with fresh media containing DMSO or inhibitor at the desired concentration and incubated for 4 hours in a tissue culture incubator (37° C., 5% CO2). Cells were then washed with PBS, harvested, washed with PBS once more, and lysed with a probe sonicator.
The activity and selectivity of dual ABHD3/4 and ABHD4-preferring inhibitors in PC3 cells by ABPP-SILAC was assessed. Isotopically heavy and light PC3 cells were treated in situ with inhibitor (Compound 37 (1 μM) or Compound 38 (0.5 μM)) or DMSO for 4 h and then lysed and processed for ABPP-SILAC analysis.

[2] = molecular target: T2, endogenous PPT1 (Homo sapiens, UniProt P50897); assay: PPT1 substrate assay, PC3 cells treated in situ; assay type: cell-based; details: 4 h in situ; for reduction in 4-MUBO hydrolysis activity versus DMSO: 500 nM inhibitor
T2 construct: endogenous in cells; host or cells: PC3
T2 sequence (P50897 28-306): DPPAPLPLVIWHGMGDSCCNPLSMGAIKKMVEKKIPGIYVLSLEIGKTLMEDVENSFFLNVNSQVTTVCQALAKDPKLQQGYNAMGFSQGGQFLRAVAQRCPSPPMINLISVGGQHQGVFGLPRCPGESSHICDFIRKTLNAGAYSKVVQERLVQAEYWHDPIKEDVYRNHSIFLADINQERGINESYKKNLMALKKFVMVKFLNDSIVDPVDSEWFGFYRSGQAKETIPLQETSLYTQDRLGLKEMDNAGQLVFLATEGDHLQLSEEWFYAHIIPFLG
Experimental: PPT1 activity was assessed in vitro using a substrate assay adapted from previous studies (van Diggelen et al., Molecular genetics and metabolism 66, 240-244, 1999). Lysates from HEK293T cells transfected with an empty vector, or human PPT1 under a CMV promoter were adjusted to 1 mg/ml in PBS (25 μl), and then combined 1:1 with Mcllvain's phosphate/citrate buffer containing 0.375% (v/v) Triton-X 100 and 15 mM DTT (pH 5.0). This sample was pre-treated with inhibitor or DMSO for 30 minutes at 37° C., and 10 μl (5 μg protein) was used in the substrate assay as follows: Samples were diluted in a black 96-well plate (half-area) with 20 μl McIlvain's phosphate/citrate buffer (pH 5.0) containing 0.375% TX-100 and 15 mM DTT, as well as 0.64 mM MU-6S-Palm-PD-Glc and 0.1 U sweet almond glucosidase (Sigma). The reactions were incubated at 37° C. for 1 hour, quenched with 120 μl sodium bicarbonate buffer (pH 10.0), and hydrolysis by 4-MU fluorescence measured by excitement at […] and emission intensity at […]. 16 μg protein was used for analysis of native PC3 cells.
as §1
Compound 26 was then tested to see if it inhibited PPT1 activity using a substrate assay. […] In this assay, PPT1 hydrolyzes the substrate's palmitoyl thioester bond, and exogenous sweet almond β-glucosidase deglycosylates and frees the fluorophore, 4-methylumbelliferone (4-MU), which is measured to assess PPT1 activity.

[3] = test system: FP-sensitive SHs in the mouse brain membrane proteome; assay: Gel-based competitive ABPP in vitro, mouse brain membrane proteome, anti-targets; assay type: biochemical
How it was run: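 Mouse brain membrane proteome (1 mg/mL in DPBS) was treated with compound (0.1-100 μM) for 30 min at 37 °C, then labeled with FP-Rh (2 μM final, 30 min, 25 °C). Bands were resolved by SDS-PAGE and scanned in-gel, with inhibition taken from band optical density versus DMSO. Targets counted as active or anti-targets at ≥50% inhibition.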

T1 sequence (Q8WU67 whole entry): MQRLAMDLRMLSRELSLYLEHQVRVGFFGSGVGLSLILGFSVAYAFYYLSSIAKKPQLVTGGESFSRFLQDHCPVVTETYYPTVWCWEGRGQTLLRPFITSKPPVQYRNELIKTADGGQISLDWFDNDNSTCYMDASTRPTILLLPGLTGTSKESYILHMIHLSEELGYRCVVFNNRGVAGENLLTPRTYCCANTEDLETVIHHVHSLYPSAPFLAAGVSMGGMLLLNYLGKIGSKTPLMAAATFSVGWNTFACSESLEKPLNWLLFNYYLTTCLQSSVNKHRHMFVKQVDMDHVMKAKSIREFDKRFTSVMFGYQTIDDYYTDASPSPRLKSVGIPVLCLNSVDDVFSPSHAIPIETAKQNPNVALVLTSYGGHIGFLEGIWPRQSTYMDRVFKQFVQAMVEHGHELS

## COc1ccc(N2CCN(C(=O)ON3C(=O)C4CN(Cc5ccc(Oc6ccccc6)cc5)CCN4C3=O)CC2)cc1 (stereo not drawn) [Compound 37, 1,3-dioxo-7-(4-phenoxybenzyl)hexahydroimidazo[1,5-a]pyrazin-2(3H)-yl 4-(4-methoxyphenyl)piperazine-1-carboxylate]
[1]; PC-3, 1 μM
  inhibition at 1 µM: ~80%

## COc1ccc(N2CCN(C(=O)ON3C(=O)C4CN(CC5CCN(Cc6ccccc6)CC5)CCN4C3=O)CC2)cc1 (stereo not drawn) [Compound 26, 7-((1-benzylpiperidin-4-yl)methyl)-1,3-dioxohexahydroimidazo[1,5-a]pyrazin-2(3H)-yl 4-(4-methoxyphenyl)piperazine-1-carboxylate]
[2]
  reduction in 4-MUBO hydrolysis activity versus DMSO: substantial reductions
[2]; 500 nM, MU-6S-Palm-βD-Glc substrate assay
  reduction in endogenous PPT1 activity: 90%

## O=C(ON1C(=O)C2CN(C(=O)N3CCOCC3)CCN2C1=O)N1CCC(CCc2ccc(Cl)cc2)CC1 (stereo not drawn) [Compound 1, 7-(morpholine-4-carbonyl)-1,3-dioxohexahydroimidazo[1,5-a]pyrazin-2(3H)-yl 4-(4-chloro-phenethyl)piperidine-1-carboxylate]
[3]; SHs with at least 50% inhibition at 1 μM compound
  Anti-target(s) 1 μM: ABHD6
[3]; SHs with at least 50% inhibition at 10 μM compound
  Anti-target(s) 10 μM: FAAH,; also recorded: ABHD6
[3]; SHs with at least 50% inhibition at 100 μM compound
  Anti-target(s) 100 μM: FAAH,; also recorded: ABHD12,; also recorded: MAGL,; also recorded: ABHD6

## O=C(ON1C(=O)C2CN(Cc3ccc(Oc4ccccc4)cc3)CCN2C1=O)N1CCOCC1 (stereo not drawn) [Compound 34, 1,3-dioxo-7-(4-phenoxybenzyl)hexahydroimidazo[1,5-a]pyrazin-2(3H)-yl morpholine-4-carboxylate]
[2]
  reduction in 4-MUBO hydrolysis activity versus DMSO: not

## O=C(ON1C(=O)C2CN(Cc3ccc(Oc4ccccc4)cc3)CCN2C1=O)N1CCC(c2ccccc2)CC1 (stereo not drawn) [Compound 38, 1,3-dioxo-7-(4-phenoxybenzyl)hexahydroimidazo[1,5-a]pyrazin-2(3H)-yl 4-phenylpiperidine-1-carboxylate]
[1]; 0.5 μM
  inhibition of ABHD3 in PC3 cells: inhibit both ABHD3 and ABHD4
[3]; mouse brain membrane SHs, FIG. 7B
  concentration-dependent profiling, ABHD3 and ABHD4: promising lead inhibitor for ABHD3 and ABHD4

Reference: US9981972B2, “N-hydroxy bicyclic hydantoin carbamates as tools for identification of serine hydrolase targets” (ABIDE THERAPEUTICS, INC., priority 2014, dated 2018)
